Experimental data taken from paper PMC7912516, “New Antimicrobials Based on the Adarotene Scaffold with Activity against Multi-Drug Resistant Staphylococcus aureus and Vancomycin-Resistant Enterococcus” (Antibiotics, 2021).
Where “and” joins values, the source holds several entries; their conditions need not be identical. Equal values may be shown once. Read-outs that look alike come from different tables or passages of the source.

Tests used:
[1] = tested on: S. aureus strain 1 (MDR clinical isolate, MRSA, mecA positive); assay: MIC/MBC by broth micro-dilution (CLSI); assay type: cell-based, Staphylococcus aureus; conditions: S. aureus Strain 1; for MBC: in square brackets
Protocol: (§1) The compounds were initially tested with a methicillin-resistant S. aureus and an E. faecalis clinical isolates (details in the experimental section), two MDR strains according to definition by Magiorakos et al.. The activity of studied compounds was assessed by broth micro-dilution method. Minimal Inhibitory Concentration (MIC), and Minimal Bactericidal Concentration (MBC) were determined and possible bacteriostatic or bactericidal activity was also investigated.
(§2) MICs and MBCs were determined according to CLSI (Clinical and Laboratory Standards Institute) guidelines, in triplicate. Results are shown as modal values of the three replicates. According to MIC and MBC data, the killing rate was calculated as the ratio between MBC and MIC on which basis it is possible to define the compounds tested as bactericides (killing rate = 1–4), or bacteriostatic (killing rate > 4).
(§3) Preparation of the solution containing molecules: for each molecule to be tested, solutions were made as DMSO stock, with a concentration of 2.560 mg/mL. Scalar dilutions were than prepared directly on plates by using Mueller Hinton Broth (MHB) as a growth medium (range 0.5–256 µg/mL).
(§4) Bacterial suspension preparation: cryostrains preserved at −80 °C were recovered by incubation in growth medium (Brain Heart Infusion Broth, BHI) for 24–48 h at 35 ± 2 °C followed by passages in agar growth medium (Columbia Blood Agar). Colonies with less than 30 h were suspended in MHB with the purpose to prepare a bacterial suspension with a turbidity of 0.5 MF, containing approximately 1.5 × 10^8 cfu/mL. This suspension was than diluted in MHB until reaching a final concentration of 5 × 10^4 CFU/well. Simultaneously, check in broth-microdilution only with solvent (in order to exclude that the effect of growth inhibition might be due to the drug solution solvent), positive growth control in absence of DMSO and drug, and negative purity control only with injection broth were performed.
S. aureus strain 1 (collection, MDR): mecA positive; MRSA, β-lactamase positive, resistant to ciprofloxacin, gentamicin and erythromycin.

[2] = tested on: E. faecalis ATCC 51299 (reference strain, vanB positive); assay: MIC/MBC by broth micro-dilution (CLSI); assay type: cell-based; conditions: Enterococcus faecalis; for MIC: ATCC51299, modal value
Protocol: (§5) To expand the previously obtained results compounds 16 and 17 were also tested on wider a selection of strains: two other MDR S. aureus and E. faecalis clinical isolates, the S. aureus ATCC 25923 and the E. faecalis ATCC 51299 reference strains. Compound 2, which was endowed with low antimicrobial activity, was tested as well, to confirm its low efficacy. Adarotene was used as control compound (Table 2).
as §2, §3, §4
E. faecalis ATCC 51299 (reference strain): vanB positive.

[3] = tested on: E. faecalis strain 2 (MDR clinical isolate); assay: MIC/MBC by broth micro-dilution (CLSI); assay type: cell-based; conditions: Enterococcus faecalis, modal value
Protocol: as §5, §2, §3, §4
E. faecalis strain 2 (collection, MDR) vanA/B negative; aminoglycosides high-level resistant to aminoglycosides (gentamicin and strseptomycin) and ampicillin.

[4] = tested on: E. faecalis strain 1 (MDR clinical isolate); assay: MIC/MBC by broth micro-dilution (CLSI); assay type: cell-based, Enterococcus faecalis; conditions: for MBC: in square brackets
Protocol: as §1, §2, §3, §4
E. faecalis strain 1 (collection, MDR) vanA/B negative; aminoglycosides high-level resistant to aminoglycosides (gentamicin and streptomycin) and ampicillin.

[5] = tested on: S. aureus strain 2 (MDR clinical isolate); assay: MIC/MBC by broth micro-dilution (CLSI); assay type: cell-based; conditions: Staphylococcus aureus, modal value
Protocol: as §5, §2, §3, §4
S. aureus strain 2 (collection, MDR): mecA negative; β-lactamase positive, resistant to erythromycin, gentamicin, clindamycin and fusidic acid.

[6] = tested on: S. aureus ATCC 25923 (reference strain); assay: MIC/MBC by broth micro-dilution (CLSI); assay type: cell-based; conditions: Staphylococcus aureus; for MIC: ATCC25923, modal value
Protocol: as §5, §2, §3, §4
S. aureus ATCC 25923 (reference strain): mecA negative; multi-susceptible.

tumor cell line IGROV-1 = conditions: ± SD, read-out: IC50 (concentration required for 50% inhibition of cell growth), cited from earlier work
[7] = tested on: tumor cell line H-460 NCI; design: method as in PMID 32920362; conditions: ± SD, ref [17], read-out: IC50 (concentration required for 50% inhibition of cell growth); cited from earlier work
[8] = modal value of three replicates
[9] = Staphylococcus aureus, MRSA, modal value of three replicates, read-out: MIC
[10] = Staphylococcus aureus, MRSA, modal value, read-out: MIC
[11] = Enterococcus faecalis, modal value of three replicates, read-out: MIC
[12] = Enterococcus faecalis, modal value, read-out: MIC
[13] = Staphylococcus aureus, MRSA, modal value
[14] = Enterococcus faecalis, modal value

| Compound | MIC [1, 8] | MIC [1, 9] | MIC [1, 10] | MIC [2] | MIC [3] | MIC [4, 11] | MIC [4, 12] | MIC [4, 8] | MIC [5] | MIC [6] | IC50 (tumor cell line IGROV-1; ref [14]) | MBC [1, 13] | IC50 (tumor cell line IGROV-1; ref [13]) | MBC [4, 14] | IC50 (tumor cell line IGROV-1; ref [15]) | MBC ([2]; ATCC51299, in square brackets, modal value) | MBC ([3]; in square brackets) | MBC ([5]; in square brackets) | MBC ([6]; ATCC25923, in square brackets, modal value) | IC50 [7] |
| --- | --- | --- | --- | --- | --- | --- | --- | --- | --- | --- | --- | --- | --- | --- | --- | --- | --- | --- | --- | --- |
| O=C(O)C=Cc1ccc(-c2ccc(OCCCCO)c(C34CC5CC(CC(C5)C3)C4)c2)cc1 [Compound 2, 3-[3′-adamantan-1-yl-4′-(hydroxybutoxy)-biphenyl-4-yl]-acrylic acid] | 256 µg/mL | > 256 µg/mL | 573 µM | 64 µg/mL and 143 µM | 128 µg/mL and 286 µM | > 256 µg/mL | 287 µM | 128 µg/mL | 256 µg/mL and 572 µM | 256 µg/mL and 572 µM | – | – | – | – | – | – | – | – | – | – |
| O=Cc1cc(-c2ccc(/C=C/C(=O)O)cc2)cc(C23CC4CC(CC(C4)C2)C3)c1O [Compound 15] | – | 64 µg/mL | 159 µM | – | – | 64 µg/mL | 159 µM | – | – | – | 1.64 ± 0.03 µM | – | – | – | – | – | – | – | – | – |
| COc1cc(-c2ccc(/C=C/C(=O)O)cc2)cc(C23CC4CC(CC(C4)C2)C3)c1O [Compound 11] | – | 16 µg/mL | 40 µM | – | – | 8 µg/mL | 20 µM | – | – | – | – | 32 µg/mL and 80 µM | – | – | – | – | – | – | – | – |
| N#C/C=C/c1ccc(-c2ccc(O)c(C34CC5CC(CC(C5)C3)C4)c2)cc1 [Compound 4] | >= 32 µg/mL and 128 [128] µg/mL | – | 361 µM | – | – | ≥ 32 µg/mL | 90 µM | 32 µg/mL | – | – | – | 128 µg/mL and 361 µM | 8.3 ± 1.4 µM | 128 µg/mL and 360 µM | – | – | – | – | – | – |
| C/C(=C\c1ccc(-c2ccc(O)c(C34CC5CC(CC(C5)C3)C4)c2)cc1)C(=O)O [Compound 8] | 2 µg/mL | 2 to 4 µg/mL | 5 µM | – | – | 1 to 4 µg/mL | 3 µM | 1 µg/mL | – | – | – | 8 µg/mL and 20 µM | 7.19 ± 1.27 µM | 8 µg/mL and 21 µM | – | – | – | – | – | – |
| O=C(/C=C/c1ccc(-c2ccc(O)c(C34CC5CC(CC(C5)C3)C4)c2)cc1)NO [Compound 5] | 64 µg/mL | ≥ 32 µg/mL | 164 µM | – | – | – | > 657 µM | >= 32 µg/mL and >256 µg/mL | – | – | – | – | – | – | 1.1 ± 0.6 µM | – | – | – | – | – |
| O=C(O)/C=C/c1ccc(-c2ccc(O)c(C34CC5CC(CC(C5)C3)C4)c2)cc1 [Adarotene, adarotene] | – | 8 µg/mL | 21 µM | 2 µg/mL and 5 µM | 4 µg/mL and 10 µM | 1 µg/mL | 3 µM | – | 4 µg/mL and 10 µM | 8 µg/mL and 21 µM | – | 16 µg/mL and 42 µM | 0.23 ± 0.08 µM | 32 µg/mL and 85 µM | – | 32 µg/mL and 84 µM | 32 µg/mL and 84 µM | 8 µg/mL and 21 µM | 16 µg/mL and 42 µM | – |
| N=C(N)NCc1cc(/C=C/C(=O)O)ccc1-c1ccc(O)c(C23CC4CC(CC(C4)C2)C3)c1 [Compound 19] | 32 µg/mL | 32 to 128 µg/mL | 72 µM | – | – | 32 to 128 µg/mL | 72 µM | 32 µg/mL | – | – | – | 64 µg/mL and 144 µM | – | 64 µg/mL and 144 µM | – | – | – | – | – | > 10 µM |
| O=C(O)/C=C/c1ccc(-c2cc3c(c(C45CC6CC(CC(C6)C4)C5)c2)OCCO3)cc1 [Compound 12] | – | 4 µg/mL | 9 µM | – | – | 2 µg/mL | 5 µM | – | – | – | 0.23 ± 0.07 µM | – | – | – | – | – | – | – | – | – |
| CC(=O)NCc1cc(-c2ccc(/C=C/C(=O)O)cc2)cc(C23CC4CC(CC(C4)C2)C3)c1O [Compound 13] | – | 8 µg/mL | 18 µM | – | – | 4 µg/mL | 9 µM | – | – | – | 1.24 ± 0.07 µM | 16 µg/mL and 36 µM | – | 16 µg/mL and 36 µM | – | – | – | – | – | – |
| O=C(O)/C=C/c1ccc(-c2ccc(O)c(C34CC5CC(CC(C5)C3)C4)c2)c(C=NOCC(=O)O)c1 [Compound 18] | 32 to 128 µg/mL and 128 µg/mL | – | 269 µM | – | – | – | 269 µM | 32 to 128 µg/mL and 128 µg/mL | – | – | – | – | – | – | – | – | – | – | – | > 10 µM |
| CC(C)(C)c1cc(-c2ccc(/C=C/C(=O)O)cc2)ccc1O [Compound 1] | – | 64 µg/mL | 216 µM | – | – | > 256 µg/mL | > 864 µM | – | – | – | – | – | 30 µM | – | – | – | – | – | – | – |
| O=C(/C=C/c1ccc(-c2ccc(O)c(C34CC5CC(CC(C5)C3)C4)c2)cc1)Nc1ccc(O)cc1 [Compound 6] | >= 32 µg/mL and >256 µg/mL | – | > 549 µM | – | – | – | > 550 µM | >= 32 µg/mL and >256 µg/mL | – | – | – | – | 6.6 ± 0.5 µM | – | – | – | – | – | – | – |
| O=C(O)CCc1ccc(-c2ccc(O)c(C34CC5CC(CC(C5)C3)C4)c2)cc1 [Compound 10] | 16 [16] µg/mL | 16 µg/mL | 42 µM | – | – | 16 µg/mL | 42 µM | 16 µg/mL | – | – | – | 16 µg/mL and 42 µM | 48.4 ± 0.88 µM | 32 µg/mL and 85 µM | – | – | – | – | – | – |
| O=Cc1cc(/C=C/C(=O)O)ccc1-c1ccc(O)c(C23CC4CC(CC(C4)C2)C3)c1 [Compound 20] | – | 2 µg/mL | 5 µM | – | – | 8 µg/mL | 20 µM | – | – | – | – | 32 µg/mL and 80 µM | – | – | – | – | – | – | – | 3.2 ± 0.2 µM |
| O=C(O)/C(F)=C\c1ccc(-c2ccc(O)c(C34CC5CC(CC(C5)C3)C4)c2)cc1 [Compound 7] | 4 µg/mL | 2 to 4 µg/mL | 10 µM | – | – | – | 10 µM | 1 to 4 µg/mL and 4 µg/mL | – | – | – | 16 µg/mL and 40 µM | > 3 µM | 16 µg/mL and 40 µM | – | – | – | – | – | – |
